Test results: BindingDB's records for doi:10.1074/jbc.M409068200 (Genentech, 2005)

Experiments:
Assay in all cases: Serine Protease Inhibition Assay
Details in all cases: pH 7.8; 22 °C
Coagulation factor X = Coagulation factor X (Homo sapiens, UniProt P00742)
Method: (§1) The enzyme reactions were initiated by the addition of substrate, and the color developed from the release of p-nitroanilide from each chromogenic substrate was monitored continuously for 5 min at 405 nm on a microtiter plate reader. […] The apparent Ki values were then calculated according to the Cheng-Prusoff equation: Ki = IC50/1 + [S]/Km.

Plasma kallikrein = Plasma kallikrein (Homo sapiens, UniProt P03952)
Chain of Plasma kallikrein (P03952 20-390 limits assumed): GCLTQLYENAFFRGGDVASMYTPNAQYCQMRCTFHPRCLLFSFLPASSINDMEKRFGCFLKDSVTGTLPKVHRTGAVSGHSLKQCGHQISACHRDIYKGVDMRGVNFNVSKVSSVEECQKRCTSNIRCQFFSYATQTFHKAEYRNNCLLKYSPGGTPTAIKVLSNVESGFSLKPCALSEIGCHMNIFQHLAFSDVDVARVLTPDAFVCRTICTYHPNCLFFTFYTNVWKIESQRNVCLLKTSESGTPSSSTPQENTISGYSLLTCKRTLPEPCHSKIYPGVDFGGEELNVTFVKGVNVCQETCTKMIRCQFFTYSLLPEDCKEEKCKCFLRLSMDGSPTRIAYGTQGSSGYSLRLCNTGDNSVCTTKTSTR
Chain of Plasma kallikrein (P03952 391-638 limits assumed): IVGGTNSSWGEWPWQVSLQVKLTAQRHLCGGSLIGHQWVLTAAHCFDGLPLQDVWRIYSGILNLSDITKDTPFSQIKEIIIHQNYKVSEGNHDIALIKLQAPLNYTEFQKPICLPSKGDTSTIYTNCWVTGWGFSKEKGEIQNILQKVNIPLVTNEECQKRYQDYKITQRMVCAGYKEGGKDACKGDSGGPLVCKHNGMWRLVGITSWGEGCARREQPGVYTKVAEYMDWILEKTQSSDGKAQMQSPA
Method: as §1

Plasminogen = Plasminogen (Homo sapiens, UniProt P00747)
Chain of Plasminogen (P00747 97-580 limits assumed): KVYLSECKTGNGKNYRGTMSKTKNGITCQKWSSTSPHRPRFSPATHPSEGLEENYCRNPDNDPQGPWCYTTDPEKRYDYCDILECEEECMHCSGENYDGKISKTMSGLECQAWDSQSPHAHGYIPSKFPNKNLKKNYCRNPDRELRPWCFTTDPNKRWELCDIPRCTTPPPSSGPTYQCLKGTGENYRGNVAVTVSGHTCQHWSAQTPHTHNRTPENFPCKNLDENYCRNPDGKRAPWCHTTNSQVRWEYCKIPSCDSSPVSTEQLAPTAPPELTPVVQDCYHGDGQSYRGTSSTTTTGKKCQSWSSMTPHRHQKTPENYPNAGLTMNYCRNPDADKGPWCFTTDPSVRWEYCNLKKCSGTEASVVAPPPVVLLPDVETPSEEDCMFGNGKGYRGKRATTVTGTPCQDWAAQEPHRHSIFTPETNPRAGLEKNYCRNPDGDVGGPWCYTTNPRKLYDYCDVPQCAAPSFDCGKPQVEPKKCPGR
Chain of Plasminogen (P00747 581-810 limits assumed): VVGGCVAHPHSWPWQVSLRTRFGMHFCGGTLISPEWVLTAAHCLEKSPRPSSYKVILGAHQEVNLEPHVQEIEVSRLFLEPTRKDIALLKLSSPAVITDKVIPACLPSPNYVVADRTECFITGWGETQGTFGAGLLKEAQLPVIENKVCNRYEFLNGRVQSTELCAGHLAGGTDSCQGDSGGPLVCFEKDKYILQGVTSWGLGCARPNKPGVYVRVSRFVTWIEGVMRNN
Method: as §1

Prothrombin = Prothrombin (Homo sapiens, UniProt P00734)
Method: as §1

Serine protease 1 = target: T1, Serine protease 1 (Bos taurus, UniProt P00760)
T1 sequence (P00760 whole entry): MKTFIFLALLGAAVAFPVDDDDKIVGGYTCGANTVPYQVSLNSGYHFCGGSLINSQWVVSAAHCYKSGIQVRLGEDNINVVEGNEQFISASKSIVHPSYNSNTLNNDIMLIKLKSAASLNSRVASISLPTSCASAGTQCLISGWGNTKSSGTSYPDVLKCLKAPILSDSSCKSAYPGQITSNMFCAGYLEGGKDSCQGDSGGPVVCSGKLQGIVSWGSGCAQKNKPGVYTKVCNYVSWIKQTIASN
Method: as §1

[1] = target: Tissue-type plasminogen activator (Homo sapiens, UniProt P00750)
Chain of Tissue-type plasminogen activator (P00750 whole entry): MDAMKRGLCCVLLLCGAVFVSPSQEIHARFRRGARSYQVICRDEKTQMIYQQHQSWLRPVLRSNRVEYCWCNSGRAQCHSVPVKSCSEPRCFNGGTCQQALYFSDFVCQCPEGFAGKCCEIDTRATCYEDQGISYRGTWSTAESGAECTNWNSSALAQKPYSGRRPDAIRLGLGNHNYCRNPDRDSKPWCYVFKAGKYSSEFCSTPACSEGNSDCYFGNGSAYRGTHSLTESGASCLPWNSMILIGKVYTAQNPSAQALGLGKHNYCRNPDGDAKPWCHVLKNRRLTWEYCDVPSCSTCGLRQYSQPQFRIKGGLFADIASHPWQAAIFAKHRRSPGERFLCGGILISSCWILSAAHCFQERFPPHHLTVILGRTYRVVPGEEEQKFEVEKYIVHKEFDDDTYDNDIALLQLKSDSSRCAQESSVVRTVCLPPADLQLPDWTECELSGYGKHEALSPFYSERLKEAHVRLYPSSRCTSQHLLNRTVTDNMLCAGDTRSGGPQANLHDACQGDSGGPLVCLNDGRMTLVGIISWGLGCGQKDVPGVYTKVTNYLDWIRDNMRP
Method: as §1

[2] = target: Urokinase-type plasminogen activator (Homo sapiens, UniProt P00749)
Method: as §1

[3] = target: Vitamin K-dependent protein C (Homo sapiens, UniProt P04070)
Chain of Vitamin K-dependent protein C (P04070 43-197 limits assumed): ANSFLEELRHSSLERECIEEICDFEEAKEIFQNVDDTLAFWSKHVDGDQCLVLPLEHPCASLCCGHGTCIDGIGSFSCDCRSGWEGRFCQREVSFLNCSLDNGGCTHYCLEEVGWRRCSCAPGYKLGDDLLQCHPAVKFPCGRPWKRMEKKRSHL
Chain of Vitamin K-dependent protein C (P04070 212-461 limits assumed): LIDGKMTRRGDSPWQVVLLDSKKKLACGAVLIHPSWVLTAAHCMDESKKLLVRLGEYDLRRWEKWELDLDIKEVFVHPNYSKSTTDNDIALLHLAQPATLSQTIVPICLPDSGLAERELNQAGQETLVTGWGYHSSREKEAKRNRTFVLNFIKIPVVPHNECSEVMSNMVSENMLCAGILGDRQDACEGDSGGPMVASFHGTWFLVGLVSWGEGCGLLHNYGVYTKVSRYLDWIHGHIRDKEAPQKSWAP
Method: as §1

Chain of Coagulation factor X (P00742 41-179 limits assumed): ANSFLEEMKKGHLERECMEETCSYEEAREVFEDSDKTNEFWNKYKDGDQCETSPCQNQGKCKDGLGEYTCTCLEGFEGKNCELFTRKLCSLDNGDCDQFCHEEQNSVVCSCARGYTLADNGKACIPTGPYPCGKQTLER
Chain of Coagulation factor X (P00742 235-488 limits assumed): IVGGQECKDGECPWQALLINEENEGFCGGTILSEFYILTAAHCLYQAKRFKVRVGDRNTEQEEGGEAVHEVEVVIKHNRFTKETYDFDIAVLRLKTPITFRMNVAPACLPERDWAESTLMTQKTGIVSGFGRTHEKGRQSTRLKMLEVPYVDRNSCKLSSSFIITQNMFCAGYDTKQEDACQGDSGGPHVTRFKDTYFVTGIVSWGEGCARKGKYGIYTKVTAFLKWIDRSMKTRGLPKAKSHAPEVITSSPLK

- Ki (Coagulation factor X): > 3.5 µM
- Ki (Plasma kallikrein): 0.114 µM
- Ki (Plasminogen): 1.2 µM
- Ki (Prothrombin): 3.6 µM
- Ki (Serine protease 1): 4 µM
- Ki [1]: > 3.9 µM
- Ki [2]: > 3.4 µM
- Ki [3]: 0.087 µM
Compound: CCOc1cc(OCC)c(F)c([C@@H](Nc2ccc(C(=N)N)c(O)c2)C(=O)NS(=O)(=O)c2cccc(N)c2)c1 [(2R)-N-[(3-aminobenzene)sulfonyl]-2-[(4-carbamimidoyl-3-hydroxyphenyl)amino]-2-(3,5-diethoxy-2-fluorophenyl)acetamide]
